Assay results from patent US20240252497A1, “USE OF COMPLEMENT FACTOR D INHIBITOR FOR TREATMENT OF GEOGRAPHIC ATROPHY SECONDARY TO AGE-RELATED MACULAR DEGENERATION” (Alexion Pharmaceuticals, Inc., priority 2021, published 2024).

Experiments:
[1] = Ocular distribution of Compound 1 after oral administration; type: in vivo
Source text: As an orally administered small molecule, Compound 1 is advantageous over therapeutic agents being investigated for the use in treating GA, which rely in intravitreal administration. In this regard, oral CFD inhibitors, such as Compound 1, not only provide GA patients with a more convenient and accessible option for therapy, but also help reduce the patient and caregiver burden for by lowering the need for clinical visits and minimize the risk of ocular injection-related adverse events. […] Given the overall pharmaceutical profile of Compound 1, the present disclosure provides that a treatment regimen with Compound 1 leads to better patient compliance and improved clinical outcomes in patients with GA.

[2] = MAD study (tolerability, liver enzymes); type: in vivo, human; settings: high doses, after dosing was ceased
Description: The 100 mg BID, 200 mg BID, and 400 mg QD dose regimens proposed for this study are based on simulation results. […] Based on data from the literature, retina and choroid RPE on the retinal side are more likely to be the target eye tissues. However, the choroid RPE on the capillary bed side cannot be completely ruled out as a potential target. The proposed doses allow for the assessment of two different dosing intervals, i.e., BID vs QD. The 400 mg QD dosing regimen, if shown to be safe and effective, would be more convenient for patients and encourage better compliance relative to bid dosing. An up to 2-fold uncertainty of model prediction on PK and APH inhibition in the target eye tissues is anticipated as the physiological eye parameters in humans were translated from Dutch-Belted rabbits. […] The elevations were transient and not considered of clinical significance. […] A dose taper was instituted in subsequent studies as a risk mitigation measure.

blood-retina barrier crossing [1]: cross the blood-retina barrier
Compound: CC(=O)c1nn(CC(=O)N2C[C@H](F)C[C@H]2C(=O)Nc2cccc(Br)n2)c2ccc(-c3cnc(C)nc3)cc12 [Compound 1, (2S,4R)-1-(2-(3-acetyl-5-(2-methylpyrimidin-5-yl)-1H-indazol-1-yl)acetyl)-N-(6-bromopyridin-2-yl)-4-fluoropyrrolidine-2-carboxamide]
retention in ocular tissues after oral administration ([1]; choroid and retinal pigment epithelium (RPE)): selective retention in ocular tissues containing melanin | ALT elevations [2]: ALT elevations were observed at high doses in 2 subjects after dosing was ceased
